We go through 22 sequences from patent US20020164721A1, “Design of a polyepitopic construct for the induction of HLA-A2.1 restricted HIV 1 specific CTL responses using HHD mice” (priority 1999, published 2002).

Several values for one entry are separate records, joined by “and”; a condition that tells them apart may be missing. Equal values may be shown once. Entries after “also recorded” stand apart in the source; their conditions may differ. Read-outs that look alike come from different tables or passages of the source.

Experiment [1] relates to peptide-pulsed HHD-transfected RMAS cells. Type of experiment: in vivo, HHD mice. To be noted: for Maximum specific lysis (%): each responder mouse.
For experiment [2] the test system is unchanged. Type of experiment: in vivo, HHD mice.
For experiment [3], the system named is peptide-loaded HHD-transfected RMA-S cells and HHD-transfected HeLa cells expressing the polyepitope. Kind of experiment: Melanoma polyepitopic pCMV-B10 DNA immunization of HHD mice, CTL assay. It counts as in vivo. To be noted: pCMV-B10 DNA with 10 melanoma epitopes, FIG. 1C and D.
Experiment [4] concerns HHD-transfected RMA-S cells loaded with relevant peptide. Kind of experiment: CTL response of A2A2Kb mice injected s.c. with tumor epitopic peptide in IFA (51Cr-release assay). Type of experiment: in vivo. To be noted: for R/T (responder versus tested mice): responder = at least 10% specific lysis.
For experiment [5] the test system is unchanged. Kind of experiment: CTL response of HHD mice injected s.c. with tumor epitopic peptide in IFA (51Cr-release assay). It counts as in vivo. To be noted: for hierarchy of CTL inducers: peptide alone in IFA, by number of responding mice and level of specific lysis; for R/T (responder versus tested mice) / lysis in % (maximal lysis for each responder mouse): peptide s.c. in IFA; for R/T (responder versus tested mice): no helper, responder = at least 10% specific lysis; for lysis in % (maximal lysis for each responder mouse): usually 60:1 E/T ratio.

In experiment [6] the test system is HHD-transfected RMA-S target cells loaded with relevant peptide. Briefly: CTL response of HHD mice co-immunized in IFA with tumor peptide and HBVc.128 helper peptide. To be noted: for R/T (responder versus tested mice): 50 μg CD8 peptide + 140 μg HBVc.128 helper in IFA; for CTL response with helper peptide (in words): co-injected with HBVc.128 helper, compared with peptide alone. It counts as in vivo.

A further experiment deals with T1, HLA-A2.1 molecules (Homo sapiens, UniProt P04439, D140Y/D185E/D98H/E176V/E277Q/G131W/G231S/I119V/I121R/I166T/I218V/L300P/L318F/N151K/N90K/P208A/P217A/Q86G/Q94H/R138H/R169H/T345S).
T1 construct: Using TAP-deficient, HLA-A2.1^+ T2 cells, we evaluated these parameters in an immunofluorescence assay; endogenous in cells; host or cells: T2 cells (TAP-deficient, HLA-A2.1+)
Type of experiment: binding.

The subject of experiment [7] is HHD-transfected RMAS cells loaded with relevant peptide. Briefly: CTL response of HHD mice immunized with peptide-loaded dendritic cells. Type of experiment: in vivo.
For experiment [8] the test system is unchanged. Kind of experiment: CTL response of HHD mice immunized with lipopeptides. It counts as in vivo. To be noted: lipopeptide of the epitope; individual mice 1-6.
The test system is the same in experiment [9]. Briefly: CTL response of HHD mice immunized with monoepitopic pCMV-B10 DNA. To be noted: pCMV-B10 DNA encoding the epitope; individual mice 1-6. Type of experiment: in vivo.
[10] abbreviates: by number of responder mice and strength of responses, peptide in IFA.
The mark [11] stands for this setting: without helper peptide, 100 μg peptide s.c. in IFA.
The mark [12] stands for this setting: with helper peptide, 50 μg CD8 + 140 μg HBV core T13L in IFA.
Setting [13] is: wild-type HIV 1 peptides, reference I9V, T2 cells.

As to “AFHHVAREL [A9L, HIV 1 NEF (188-196) CD8 epitopic peptide]”, in experiment [1] (setting [10]), the classification as immunogen result is listed as “inefficient”. Moreover, the Responder/tested mice in experiment [1] (setting [11]) and in experiment [2] (setting [12]) was 0/6 in each case.
For the sequence ESELVNQIIEQ [E11Q], the classification as immunogen entry in experiment [1] (mouse, in vivo) is “inefficient”. Moreover, the Responder/tested mice in experiment [1] (mouse, in vivo, sc) is reported as 0/6; in [2] (mouse, in vivo), 0/6.
As to FLWGPRALV [MAGE-3.271], the “CTL response against the epitope after melanoma polyepitope DNA immunization (in words)” value (from here on “CTL response against the epitope”) in [3] is on record as “No specific lysis”. Moreover, the “R/T (responder versus tested mice)” value in experiment [4] is recorded as 0/6. Further, in [5], the “hierarchy of CTL inducers” value is on record as “weak”, the “R/T (responder versus tested mice)” value was 1/6 and the “lysis in % (maximal lysis for each responder mouse)” value is on record as “(33) %”. Moreover, in [6], the “R/T (responder versus tested mice)” value is given as 6/6 and the “CTL response with helper peptide (in words)” value is reported as “good CTL responses in a large proportion of mice”.
For “IISAVVGIL [Her2/neu.654, Her2/neu 654-662 epitopic peptide]”, the “R/T (responder versus tested mice)” value in experiment [4] is 0/6. Moreover, in experiment [5], the “hierarchy of CTL inducers” value is listed as “weak”, the “R/T (responder versus tested mice)” value is 1/6 and the “lysis in % (maximal lysis for each responder mouse)” value was “(42) %”. In experiment [6], the “R/T (responder versus tested mice)” value is on record as 0/6.
With ILKEPVHGV [I9V], the classification as immunogen entry in experiment [1] (setting [10]) is reported as “strong”. Moreover, the Responder/tested mice in experiment [1] (setting [11]) is on record as 4/6; in experiment [2] (setting [12]), 5/6.
Regarding “ILTVILGVL [Melan-A/MART-1.32, Melan-A/MART-1 32-40 epitopic peptide]”, the “CTL response against the epitope” value in experiment [3] was “did not elicit CTL responses; also recorded: No specific lysis”. The “RA (relative affinity)” value with HLA-A2.1 molecules was 21.1. The “R/T (responder versus tested mice)” value is 0/6 in [4], 0/6 in [5] and 1/6 in [6]. The “hierarchy of CTL inducers” value in [5] is given as “inefficient”. The lysis in % result in experiment [6] (co-injected with HBVc.128 helper peptide in IFA, each responder mouse) is “(10) %”.
As to ITDQVPFSV [gp100.209], in experiment [3], the “CTL response against the epitope” value is “elicited CTL responses depending on mice; also recorded: No specific lysis”. Moreover, the “R/T (responder versus tested mice)” value was 0/6 in [4], 1/6 in [5] and 3/6 in experiment [6]. For the same sequence, the “hierarchy of CTL inducers” value in experiment [5] is “weak”. The “lysis in % (maximal lysis for each responder mouse)” value in experiment [5] is given as “(23) %”.
Regarding KTWGQYWQV [gp100.154], the “CTL response against the epitope” value in [3] is “Strong responses”. The “R/T (responder versus tested mice)” value in experiment [4] is on record as 5/6. Moreover, in experiment [5], the “hierarchy of CTL inducers” value is “strong” and the “R/T (responder versus tested mice)” value is on record as 4/6. For the same sequence, in experiment [6], the “R/T (responder versus tested mice)” value is 9/11 and the “CTL response with helper peptide (in words)” value is “stronger responses in a larger proportion of mice”.
In the case of LLDGTATLRL [gp100.457], in experiment [3], the “CTL response against the epitope” value was “Significant responses”. For the same sequence, the “RA (relative affinity)” value in the experiment with HLA-A2.1 molecules came out at 1.65. The “R/T (responder versus tested mice)” value in experiment [4] is reported as 0/6. For the same sequence, in [5], the “hierarchy of CTL inducers” value is “inefficient” and the “R/T (responder versus tested mice)” value is listed as 0/6. Besides, in experiment [6], the “R/T (responder versus tested mice)” value is reported as 5/6 and the “CTL response with helper peptide (in words)” value is “good CTL responses in a large proportion of mice”.
Take LLGRNSFEV [p53.264]: the “R/T (responder versus tested mice)” value in experiment [4] is recorded as 0/6; in [5] it was 0/7; in experiment [6], 2/3. Moreover, the “hierarchy of CTL inducers” value in [5] is recorded as “inefficient”.
As to “LLWKGEGAV [L9V, HIV 1 POL (956-964) CD8 epitopic peptide]”, in experiment [1] (setting [10]), the classification as immunogen result was “intermediate”. In experiment [1] (setting [11]), the Responder/tested mice is reported as 3/6.
Turning to “MLLAVLYCL [Tyrosinase.1, Tyrosinase 1-9 epitopic peptide]”, the “CTL response against the epitope” value in experiment [3] was “did not elicit CTL responses; also recorded: No specific lysis”. For the same sequence, in the experiment with HLA-A2.1 molecules, the “RA (relative affinity)” value was over 60. The “R/T (responder versus tested mice)” value in [4] was 0/6. Also, in [5], the “hierarchy of CTL inducers” value is “inefficient” and the “R/T (responder versus tested mice)” value is listed as 0/10. In experiment [6], the “R/T (responder versus tested mice)” value is 5/6 and the “CTL response with helper peptide (in words)” value was “good CTL responses in a large proportion of mice”.
In the case of “PLTFGWCFKL [P10L, HIV 1 NEF (134-143) CD8 epitopic peptide]”, the “RA (relative affinity)” value with HLA-A2.1 molecules (setting [13]) is >100/ND. For the same sequence, in experiment [1] (setting [10]), the classification as immunogen result is given as “inefficient”. The Responder/tested mice in experiment [1] (setting [11]) and in [2] (setting [12]) was 0/6 throughout.
With “PLVKLWYQL [P9L, HIV 1 POL (576-584) CD8 epitopic peptide]”, the “RA (relative affinity)” value in the experiment with HLA-A2.1 molecules (setting [13]) is on record as >100/ND. Also, the classification as immunogen result in experiment [1] (setting [10]) is listed as “inefficient”. Also, the Responder/tested mice in experiment [1] (setting [11]) and in [2] (setting [12]) was 0/6 in each case.
“RLRDLLLIV [R9V, HIV 1 ENV gp41 (260-268) CD8 epitopic peptide]”: in the experiment with HLA-A2.1 molecules, the “RA (relative affinity)” value is listed as >100/ND. Moreover, the classification as immunogen entry in experiment [1] (setting [10]) is listed as “intermediate”. In addition, the Responder/tested mice in experiment [1] (setting [11]) is on record as 1/6; in experiment [2] (setting [12]), 0/6. The “Maximum specific lysis (%)” value in experiment [1] (without helper peptide) stood at 14%.
As for “RMPEAAPPV [p53.65, p53 65-73 epitopic peptide]”, the “RA (relative affinity)” value with HLA-A2.1 molecules amounted to 0.91. Also, the “R/T (responder versus tested mice)” value in [4] is on record as 0/6. Further, in [5], the “hierarchy of CTL inducers” value is “intermediate” and the “R/T (responder versus tested mice)” value was 4/6. For the same sequence, in experiment [6], the “R/T (responder versus tested mice)” value was 5/6 and the “CTL response with helper peptide (in words)” value was “stronger responses in a larger proportion of mice”.
As for “STPPPGTRV [p53.149, p53 149-157 epitopic peptide]”, the “R/T (responder versus tested mice)” value is 0/6 in [4], 0/6 in experiment [5] and 3/6 in experiment [6]. Besides, the “hierarchy of CTL inducers” value in [5] is “inefficient”.
In the case of “TLGIVCPI [HPV E7.86, HPV16 E7 86-93 epitopic peptide]”, the figures for the “R/T (responder versus tested mice)” value in experiment [4], in [5] and in experiment [6] were 2/6, 0/6 and 2/6, respectively. The “hierarchy of CTL inducers” value in experiment [5] was “inefficient”.
Turning to TLNAWVKVV [T9V], the classification as immunogen entry in experiment [1] (setting [10]) was “intermediate”. Moreover, the Responder/tested mice in experiment [1] (setting [11]) is reported as 2/6; in experiment [2] (setting [12]) it was 3/5.
For the sequence “VIYQYMDDL [V9L, HIV 1 POL (334-342) CD8 epitopic peptide]”, the classification as immunogen result in experiment [1] (setting [10]) is on record as “intermediate”. The Responder/tested mice in [1] (setting [11]) and in experiment [2] (setting [12]) was 1/6 each time. Besides, the “Maximum specific lysis (%)” value in [1] (without helper peptide) was determined as 34%. Moreover, the “Maximal specific lysis (%)” value in [2] (with helper peptide, each responder mouse) is 57%.
Take “VLYRYGSFSV [gp100.476, gp100 476-485 human melanoma epitopic peptide]”: in [3], the “CTL response against the epitope” value is reported as “did not elicit CTL responses”. Further, the “RA (relative affinity)” value with HLA-A2.1 molecules was determined as 10. Besides, the “R/T (responder versus tested mice)” value is 1/6 in experiment [4], 2/6 in experiment [5] and 6/7 in experiment [6]. Moreover, in [4] (usually 60:1 E/T ratio), the “lysis in % (maximal lysis for each responder mouse)” value is given as “(29) %”. Besides, the “hierarchy of CTL inducers” value in [5] was “weak”.
Turning to YMDGTMSQV [Tyrosinase.368-D], the “CTL response against the epitope” value in experiment [3] was “elicited CTL responses depending on mice”. Besides, the “lysis in % (highest specific lysis)” value is 12% and 20% and 8% and 3% and 7% and 23% in experiment [7] (individual mice 1-6, usually 60/1 E/T); 0% (3×) and 10% and 1% and 4% in experiment [8]; 57% and 55% and 28% (2×) and 58% and 56% in [9]. Besides, in [7] (second restimulation with 10% TCGF, individual mice 1-6), the “lysis in % after a second in vitro restimulation” value is on record as “(64) %; also recorded: (92) %; also recorded: (71) %; also recorded: (68) %; also recorded: (56) %”. Also, the “RA (relative affinity)” value in the experiment with HLA-A2.1 molecules amounted to 2.27. For the same sequence, the “R/T (responder versus tested mice)” value in experiment [4] was 0/6; in experiment [5], 1/6; in experiment [6], 2/6. Also, the “hierarchy of CTL inducers” value in [5] is given as “weak”. Further, the “lysis in % (maximal lysis for each responder mouse)” value in experiment [5] was “(10) %”.
